From US20230021275A1, “Application of Nanosulfur in Tomato Fusarium Wilt Control” (Jiangnan University, priority 2021, published 2023)

Columns and labels:
[1] = tested on: Fusarium oxysporum f sp. Lycopersici; test: Foliar application to tomatoes grown in infected soil (tomato fusarium wilt control); type: in vivo; conditions: foliar spraying 100 mg/L; for Fresh weight of above-ground part / Fresh weight of underground part / Incidence: 10 mL/plant, 6th and 8th week, 10th week
Description: There were 5 levels of disease severity of tomatoes: 0: symptomless; 1: mildly stunted; 2: stunted; 3: leaves wilted and yellowed; and 4: dead. […] The highest disease severity level of tomatoes was Level 4. The total number of tomato plants in the treated group was 6. Test of biomass of above-ground part and underground part: Tomatoes were sampled destructively. The above-ground part and the underground part of the tomato were washed with ultrapure water three times. The above-ground part and the underground part of the tomato were dried up with filter paper. The above-ground part and the underground part were weighed using a balance. The obtained weights were respectively the biomass of the above-ground part and the underground part of the tomato. (1) Pathogenic bacteria (Fusarium oxysporum f sp. Lycopersici, the pathogen of tomato fusarium wilt) were added to dry soil at a concentration of 1×10^6 spores/g to obtain infected soil. (2) Tomato seeds were sowed in the infected soil. […] The cultivation was continued. In the meanwhile, tomato seeds were sowed in soil not infected with pathogenic bacteria, and cultivated normally with no sulfur solution applied, to obtain a healthy group. The cultivation of the tomatoes was continued until the 10th week. The tomatoes were examined for the disease severity. The tomatoes were sampled destructively. The fresh weights of the above-ground part and the underground part of the tomatoes were measured. The test results are as follows: (1) Pathogenic bacteria (F. oxysporum, the pathogen of tomato fusarium wilt) were added to dry soil at a concentration of 1×10^6 spores/g to obtain infected soil. (2) Tomato seeds were sowed in the infected soil. […] The cultivation was continued. In the meanwhile, tomato plants with no fertilizer applied were taken as the foliar disease group. When the tomatoes grew to the 10th week, the tomatoes were examined for the disease severity. The tomatoes were sampled destructively. The fresh weights of the above-ground part and the underground part of the tomatoes were measured.

[2] = tested on: F. oxysporum; test: Growth of pathogen colonies on PDA plates; type: cell-based; conditions: 100 mg/L
Description: This may be because the nanosulfur could induce the systemic acquired resistance of plants and the control effect of the nanosulfur on the tomato fusarium wilt was better than the direct bactericidal effect thereof.

Structure (SMILES) | Effect on fresh weights of above-ground and underground part (biomass) compared with the disease group [1] | Effect on the incidence of tomato fusarium wilt compared with the disease group [1] | Fresh weight of above-ground part [1] | Fresh weight of underground part [1] [b g] | Incidence [1] | Antibacterial effect relative to that of the 30-SNPs ([2]; 6 days) [times] | Reduction of the diameter of the pathogenic bacteria colonies ([2]; 6 days of exposure, compared with the foliar disease group) [%]
Cc1cc(O)no1 [Hymexazol, hymexazol] | significantly increased | significantly reduced | 6.9 ± 0.9c g | 1.8 ± 0.5 | 0.42 ± 0.08cd | 3.05 | 34.5
O=S(=O)([O-])[O-].[Na+].[Na+] [Sodium sulfate, sodium sulfate] | no significant effects |  | 5.5 ± 0.7 g·days | 1.7 ± 0.2 | 0.64 ± 0.10a |  | 
